Test results: ChEMBL document CHEMBL5528022, “Discovery of a brain-permeable bromodomain and extra terminal domain (BET) inhibitor with selectivity for BD1 for the treatment of multiple sclerosis” (Eur J Med Chem, 2024)
pKd: −log10 of the molar value.

Tests used:
[1] = biological target: T1, Bromodomain-containing protein 4 (Homo sapiens, UniProt O60885); assay: Binding affinity to BRD4 BD1 (unknown origin) expressed in Escherichia coli BL21 (DE3) at 1:1 protein:compound ratio by MST assay
[2] = biological target: T1, Bromodomain-containing protein 4; assay: Binding affinity to BRD4 BD2 (unknown origin) expressed in Escherichia coli BL21 (DE3) at 1:1 protein:compound ratio by MST assay
[3] = Selectivity ratio of Kd for binding affinity to BRD4 BD2 (unknown origin) by MST assay to Kd for binding affinity to BRD4 BD1 (unknown origin) by MST assay

| Structure (SMILES) | pKd [1] | pKd [2] | Selectivity ratio [3] |
| --- | --- | --- | --- |
| Cc1nn(C)c(C)c1-c1cc2c(c(-c3ccnc4nc[nH]c34)c1)OCC2 | 6.74 | 5.51 | 17 |
| Cc1c(-c2cnccc2-c2ccnc3nc[nH]c23)cnn1C | 5.62 | 3.75 | 73 |
| Cc1c(-c2cncc(-c3ccnc4nc[nH]c34)c2)cnn1C | 6.16 | 4.51 | 46 |

Now from value to compound:

| pKd [1] | pKd [2] | Selectivity ratio [3] | Structure (SMILES) |
| --- | --- | --- | --- |
| 6.21 | 4.52 | 48 | Cc1nn(C)c(C)c1-c1cncc(-c2ccnc3nc[nH]c23)c1 |
| 6.32 | 4.80 | 34 | CCn1nc(C)c(-c2cncc(-c3ccnc4nc[nH]c34)c2)c1C |
| 6.52 | 5.03 | 30 | Cc1nn(CC2CCCCC2)c(C)c1-c1cncc(-c2ccnc3nc[nH]c23)c1 |
